According to paper PMC8793051 (ACS Omega, 2022):

Legend:
[1] = test system: oligo-1: d(CGCGAATTCGCG)2; test: UV thermal denaturation; type: binding
[2] = test system: oligo-1: d(CGCGAATTCGCG)2; test: Fluorescence titration; type: binding; conditions: 20 °C, pH 7.2
[3] = test system: oligo-2: d(CGATGTACATCG)2; test: Fluorescence titration; type: binding; conditions: 20 °C, pH 7.2
HEK = test: MTT cytotoxicity assay; type: cell-based; conditions: Homo sapiens, HEK293, 48 h
CCRF-CEM = test: NCI-60 SRB growth assay; type: cell-based, human
K-562 = test: NCI-60 SRB growth assay; type: cell-based, human; conditions: Homo sapiens
SR = test: NCI-60 SRB growth assay; type: cell-based, human
EKVX = test: NCI-60 SRB growth assay; type: cell-based, human
HOP-62 = test: NCI-60 SRB growth assay; type: cell-based, human; conditions: HOP-62
HOP-92 = test: NCI-60 SRB growth assay; type: cell-based, human
NCI-H226 = test: NCI-60 SRB growth assay; type: cell-based, human
HCC-2998 = test: NCI-60 SRB growth assay; type: cell-based, human
SW-620 = test: NCI-60 SRB growth assay; type: cell-based, human; conditions: Homo sapiens
SF-268 = test: NCI-60 SRB growth assay; type: cell-based, human
SF-539 = test: NCI-60 SRB growth assay; type: cell-based, human
U251 = test: NCI-60 SRB growth assay; type: cell-based, human
LOX IMVI = test: NCI-60 SRB growth assay; type: cell-based, human
MDA-MB-435 = test: NCI-60 SRB growth assay; type: cell-based, human
SK-MEL-2 = test: NCI-60 SRB growth assay; type: cell-based, human
UACC-257 = test: NCI-60 SRB growth assay; type: cell-based, human
UACC-62 = test: NCI-60 SRB growth assay; type: cell-based, human
NCI/ADR-RES = test: NCI-60 SRB growth assay; type: cell-based, human
786-0 = test: NCI-60 SRB growth assay; type: cell-based, human
A498 = test: NCI-60 SRB growth assay; type: cell-based, human
CAKI-1 = test: NCI-60 SRB growth assay; type: cell-based, human
SN12C = test: NCI-60 SRB growth assay; type: cell-based, human
PC-3 = test: NCI-60 SRB growth assay; type: cell-based, human
MCF7 = test: NCI-60 SRB growth assay; type: cell-based, human
MDA-MB-231/ATCC = test: NCI-60 SRB growth assay; type: cell-based, human
HS 578T = test: NCI-60 SRB growth assay; type: cell-based, human
BT-549 = test: NCI-60 SRB growth assay; type: cell-based, human; conditions: BT-549
MDA-MB-468 = test: NCI-60 SRB growth assay; type: cell-based, human; conditions: MDA-MB-468
HL-60(TB) = test: cells; conditions: Homo sapiens
[4] = test system: panel of 60 human cancer cell lines; test: cells; conditions: read-out: GI50 concentration range

In the case of `CCCCN1CCN(c2ccc3[nH]c(-c4ccc5[nH]c(-c6ccc(C(F)(F)F)cc6)nc5c4)nc3c2)CC1` [12b, 5-(5-(4-Butylpiperazin-1-yl)-1H-benzo[d]imidazol-2-yl)2(4(trifluoromethyl)phenyl)-1H-benzo[d]imidazole], the ΔTm ([1]; r = 0.5) is reported as 3 °C, the Tm ([1]; r = 0.5, oligo 2.5 μM) is reported as 57.7 °C and the Tm ([1]; r = 1) is reported as 58.7 °C. The ΔTm ([1]; r = 1) was 4 °C, the Tm ([1]; r = 1.5) was 59.7 °C and the ΔTm ([1]; r = 1.5) was 5 °C. The Tm ([1]; r = 2.0) was 61.7 °C, the ΔTm ([1]; r = 2.0) was 7 °C and the “Ka binding affinity with oligo-1” value [2] was 1 × 10^7 M^–1. For the same compound, the “Ka binding affinity with oligo-2” value [3] was 2 × 10^6 M^1, the IC50 (HEK) was 2700 nM and the TGI (CCRF-CEM) was 1030 nM. It also gave a GI50 (CCRF-CEM; Homo sapiens) of 300 nM, a CC50 (CCRF-CEM; Homo sapiens, read-out: LC50) of 5040 nM and a GI50 (K-562; K562) of 220 nM. For the same compound, the CC50 (K-562; K562, read-out: LC50) was > 100000 nM, the TGI (SR) was 650 nM and the GI50 (SR; Homo sapiens) was 260 nM. For the same compound, the TGI (EKVX) was 2900 nM, the GI50 (EKVX; Homo sapiens) was 1500 nM and the CC50 (EKVX; Homo sapiens, read-out: LC50) was 5700 nM. For the same compound, the TGI (HOP-62) was 3050 nM, the GI50 (HOP-62; Homo sapiens) was 1300 nM and the TGI (HOP-92; HOP-92) was 2780 nM. It also gave a GI50 (HOP-92; Homo sapiens, HOP-92) of 1180 nM, a CC50 (HOP-92; Homo sapiens, HOP-92, read-out: LC50) of 6500 nM and a GI50 (NCI-H226; Homo sapiens, NCI-H226) of 1570 nM. For the same compound, the TGI (NCI-H226; NCI–H226) was 3590 nM, the TGI (HCC-2998; HCC-2998) was 3500 nM and the GI50 (HCC-2998; Homo sapiens, HCC 2998) was 1800 nM. It also gave a CC50 (HCC-2998; Homo sapiens, HCC 2998, read-out: LC50) of 6600 nM, a GI50 (SW-620; SW-620) of 210 nM and a CC50 (SW-620; SW-620, read-out: LC50) of 450 nM. For the same compound, the GI50 (SF-268; Homo sapiens, SF-268) was 1700 nM, the CC50 (SF-268; Homo sapiens, SF-268, read-out: LC50) was 6400 nM and the TGI (SF-268; SF-268) was 3300 nM. It also gave a GI50 (SF-539; Homo sapiens, SF-539) of 1600 nM, a CC50 (SF-539; Homo sapiens, SF-539, read-out: LC50) of 5800 nM and a TGI (SF-539; SF-539) of 3050 nM. The GI50 (U251; Homo sapiens, U-251) was 240 nM, the TGI (U251; U251) was 560 nM and the TGI (LOX IMVI) was 1100 nM. It also gave a GI50 (LOX IMVI; Homo sapiens) of 380 nM, a GI50 (MDA-MB-435; Homo sapiens, MDA-MB-435) of 1400 nM and a CC50 (MDA-MB-435; Homo sapiens, MDA-MB-435, read-out: LC50) of 5500 nM. For the same compound, the TGI (MDA-MB-435; MDA-MB-435) was 2800 nM, the GI50 (SK-MEL-2; Homo sapiens, SK-MEL-2) was 1800 nM and the CC50 (SK-MEL-2; Homo sapiens, SK-MEL-2, read-out: LC50) was 6300 nM. It also gave a TGI (SK-MEL-2; SK-MEL-2) of 3300 nM, a GI50 (UACC-257; Homo sapiens, UACC-257) of 1700 nM and a CC50 (UACC-257; Homo sapiens, UACC-257, read-out: LC50) of 7200 nM. The TGI (UACC-257; UACC-257) was 3500 nM, the GI50 (UACC-62; Homo sapiens, UACC-62) was 1500 nM and the CC50 (UACC-62; Homo sapiens, UACC-62, read-out: LC50) was 5800 nM. For the same compound, the TGI (UACC-62; UACC-62) was 2900 nM, the TGI (NCI/ADR-RES) was 57700 nM and the GI50 (NCI/ADR-RES; Homo sapiens) was 2100 nM. The CC50 (NCI/ADR-RES; Homo sapiens, read-out: LC50) was > 100000 nM, the TGI (786-0; 786–0) was 3040 nM and the GI50 (786-0; Homo sapiens, 786-0) was 1470 nM. The TGI (A498; A498) was 3310 nM, the GI50 (A498; Homo sapiens, A498) was 1690 nM and the CC50 (A498; Homo sapiens, A498, read-out: LC50) was 6490 nM. For the same compound, the TGI (CAKI-1; CAKI-1) was 2580 nM, the GI50 (CAKI-1; Homo sapiens, CAKI-1) was 1290 nM and the CC50 (CAKI-1; Homo sapiens, CAKI-1, read-out: LC50) was 5150 nM. The GI50 (SN12C; Homo sapiens, SN12C) was 1540 nM, the TGI (SN12C; SN12c) was 3020 nM and the GI50 (PC-3; Homo sapiens, PC-3) was 860 nM. For the same compound, the CC50 (PC-3; Homo sapiens, PC-3, read-out: LC50) was 5500 nM, the TGI (PC-3; PC-3) was 2310 nM and the TGI (MCF7) was 570 nM. The GI50 (MCF7; Homo sapiens) was 170 nM, the GI50 (MDA-MB-231/ATCC; Homo sapiens, MDA-MB-231) was 1460 nM and the CC50 (MDA-MB-231/ATCC; Homo sapiens, MDA-MB-231, read-out: LC50) was 5840 nM. The TGI (MDA-MB-231/ATCC; MDA-MB-231) was 2920 nM, the TGI (HS 578T; HS578T) was 3.05 - μM and the GI50 (HS 578T; Homo sapiens, Hs-578T) was 1260 nM. It also gave a TGI (BT-549) of 3150 nM, a GI50 (BT-549; Homo sapiens) of 1620 nM and a GI50 (MDA-MB-468; Homo sapiens) of 1660 nM. The TGI (MDA-MB-468) was 3340 nM, the GI50 (HL-60(TB); HL-60) was 1200 nM and the CC50 (HL-60(TB); HL-60, read-out: LC50) was 6600 nM. It also gave a GI50 [4] of 160 to 3600 nM.
